Patent US9481654B2, “Compositions and methods for inhibition of the JAK pathway” (Rigel Pharmaceuticals, Inc., priority 2006, dated 2016)

Experiments:
Format in all cases: cell-based
[1] = tested on: IL-4 stimulated CD23 upregulation in human Ramos B cells (JAK-1/JAK-3, Stat-6); test: Assay for Ramos B-Cell Line Stimulated with IL-4 (CD23 upregulation, FACS); settings: Table III Example 3
Outline: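 Log-phase Ramos B cells (5×10^4 per point, RPMI with 5% serum) pre-incubated with compound or DMSO 1 h at 37° C, then stimulated with IL-4 at 50 units/mL final for 20-24 h. CD23 upregulation measured by staining and flow cytometry.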

[2] = tested on: primary human T-cells (IL-2 induced proliferation, JAK-1/JAK-3, Stat-5); test: Primary Human T-Cell Proliferation Assay Stimulated with IL-2 (CellTiter-Glo); settings: Table III Example 4
Method: In this assay, primary human T-cells derived from peripheral blood and pre-activated through stimulation of the T-cell receptor and CD28, proliferate in culture in response to the cytokine Interleukin-2 (IL-2). This proliferative response is dependent on the activation of JAK1 and JAK3 tyrosine kinases, which phosphorylate and activate the transcription factor Stat-5. The primary human T-cells are incubated with the 2,4-pyrimidinediamine compounds in the presence of IL-2 for 72 hours, and at the assay endpoint intracellular ATP concentrations are measured to assess cell viability. A reduction in cell proliferation compared to control conditions is indicative of inhibition of the JAK kinase pathway.
Primary human T-cells derived from peripheral blood and pre-activated through stimulation of the T-cell receptor and CD28 proliferate in vitro in response to the cytokine Interleukin-2 (IL-2). This proliferative response is dependent on the activation of JAK-1 and JAK-3 tyrosine kinases, which phosphorylate and activate the transcription factor Stat-5.
Human primary T cells were prepared as follows. […] The lymphocytes at the serum: ficoll interface were recovered and washed twice with 5 volumes of PBS. […] The primary T-cells were stimulated for 3 to 4 days, then transferred to a fresh flask and maintained in RPMI with 10% FBS and 40 U/mL IL-2.
Primary T-cells were washed twice with PBS to remove the IL-2 and resuspended in Yssel's medium at 2×10^6 cells/mL. 50 μL of cell suspension containing 80 U/mL IL-2 was added to each well of a flat bottom 96 well black plate. For the unstimulated control, IL-2 was omitted from the last column on the plate. […] 50 μL of 2× compound was added per well in duplicate and the cells were allowed to proliferate for 72 hours at 37° C.
Proliferation was measured using CellTiter-Glo® Luminescent Cell Viability Assay (Promega), which determines the number of viable cells in culture based on quantitation of the ATP present, as an indicator of metabolically active cells. The substrate was thawed and allowed to come to room temperature. After mixing the Cell Titer-Glo reagent and diluent together, 100 μL was added to each well. The plates were mixed on an orbital shaker for two minutes to induce lysis and incubated at room temperature for an additional ten minutes to allow the signal to equilibrate.

[3] = tested on: IFNγ induced ICAM-1 (CD54) up-regulation in U937 human monocytic cells (JAK/Stat pathway); test: U937 IFNγ ICAM1 FACS Assay; settings: Table III Example 6; 10 ng/mL IFNγ, 18-24 hours
From the text: A549 lung epithelial cells and U937 cells up-regulate ICAM-1 (CD54) surface expression in response to a variety of different stimuli. Therefore, using ICAM-1 expression as readout, test compound effects on different signaling pathways can be assessed in the same cell type. Stimulation with IL-1β through the IL-1β receptor activates the TRAF6/NFκB pathway resulting in up-regulation of ICAM-1. IFNγ induces ICAM-1 up-regulation through activation of the JAK1/JAK2 pathway. The up-regulation of ICAM-1 can be quantified by flow cytometry across a compound dose curve and EC50 values are calculated. Exemplary assays of this type are described in greater detail in Examples 5 and 6. U937 human monocytic cells up-regulate ICAM-1 (CD54) surface expression in response to a variety of different stimuli. Therefore, using ICAM-1 expression as readout, compound effects on different signaling pathways can be assessed in the same cell type. IFNγ up-regulates ICAM-1 through activation of the JAK/Stat pathway. In this example, the up-regulation of ICAM-1 by IFNγ was assessed. […] The cells were then plated at a concentration of 100,000 cells per 160 μL in 96 well flat bottom plates. The test compounds were then diluted as follows: 10 mM test compound was diluted 1:5 in DMSO (3 μL 10 mM test compound in 12 μL DMSO), followed by a 1:3 serial dilution of test compound in DMSO (6 μL test compound serially diluted into 12 μL DMSO to give 3-fold dilutions). […] For control wells, 4 μL of DMSO was diluted into 76 μL 10% RPMI. […] The cells and compounds were then pre-incubated for 30 minutes at 37° C. with 5% CO2. […] The cells were kept under conditions for stimulation for 18-24 hours at 37° C. with 5% CO2. […] Cells were spun down at 1000 rpm for 5 minutes at 4° C., following which the supernatant was removed. […] The cells were then incubated on ice in the dark for 30 minutes. […] After suspension, the cells were centrifuged at 1000 rpm for 5 min at 4° C. […] Detection was performed using a BD LSR I System Flow Cytometer, purchased from BD Biosciences of San Jose, Calif. The live cells were gated for live scatter and the geometric mean of ICAM-APC was measured (Becton-Dickinson CellQuest software version 3.3, Franklin Lakes, N.J.). Both % live cells and ICAM-1 expression was analyzed. The assays for the test compounds were carried out in parallel with a control compound of known activity.

NS(=O)(=O)c1cccc(Nc2ncc(F)c(Nc3ccc(CNS(=O)(=O)c4cccs4)cc3)n2)c1 [Compound I-36, N2-(3-aminosulfonyl)phenyl-5-fluoro-N4-[4-(thiophen-2-yl)sulfonylaminomethyl]phenyl-2,4-pyrimidinediamine]
IC50 [1]: 0.0408 µM
IC50 [2]: 0.0639 µM
IC50 [3]: 0.326 µM

CCNS(=O)(=O)c1cc(Nc2ncc(C)c(Nc3cccc(CNS(=O)(=O)C4CC4)c3)n2)ccc1C [Compound I-213, N4-(3-cyclopropylsulfonylaminomethyl)phenyl-N2-(3-ethylaminosulfonyl-4-methyl)phenyl-5-methyl-2,4-pyrimidinediamine]
IC50 [1]: 0.0882 µM
IC50 [2]: 0.0918 µM
IC50 [3]: 0.125 µM

CNS(=O)(=O)c1cc(Nc2ncc(C)c(Nc3cccc(CNS(=O)(=O)C4CC4)c3)n2)ccc1C [Compound I-211, N4-(3-cyclopropylsulfonylaminomethyl)phenyl-5-methyl-N2-(4-methyl-3-methylaminosulfonyl)phenyl-2,4-pyrimidinediamine]
IC50 [1]: 0.103 µM
IC50 [2]: 0.0482 µM
IC50 [3]: 0.177 µM

CCS(=O)(=O)NCc1cccc(Nc2nc(Nc3ccc(S(N)(=O)=O)cc3)ncc2F)c1 [Compound I-11, N2-(4-aminosulfonyl)phenyl-N4-(3-ethylsulfonylaminomethyl)phenyl-5-fluoro-2,4-pyrimidinediamine]
IC50 [1]: 0.25 µM
IC50 [2]: 0.588 µM
IC50 [3]: 2.79 µM

NS(=O)(=O)c1ccc(Nc2ncc(F)c(Nc3ccc(CNS(=O)(=O)C4CC4)cc3)n2)cc1 [Compound I-23, N2-(4-aminosulfonyl)phenyl-N4-(4-cyclopropylsulfonylaminomethyl)phenyl-5-fluoro-2,4-pyrimidinediamine]
IC50 [1]: 0.126 µM
IC50 [2]: 0.198 µM
IC50 [3]: 3.85 µM

CCOC(=NS(=O)(=O)c1cccc(Nc2ncc(C)c(Nc3cccc(CNS(=O)(=O)C4CC4)c3)n2)c1)OCC [Compound I-128, N4-(3-cyclopropylsulfonylaminomethyl)phenyl-N2-[3-(diethoxy)carbonimidylsulfonyl]phenyl-5-methyl-2,4-pyrimidinediamine]
IC50 [1]: 0.157 µM
IC50 [2]: 0.0622 µM
IC50 [3]: 0.707 µM

NS(=O)(=O)c1cccc(Nc2ncc(F)c(Nc3ccc(CNS(=O)(=O)C4CC4)cc3)n2)c1 [Compound I-24, N2-(3-aminosulfonyl)phenyl-N4-(4-cyclopropylsulfonylaminomethyl)phenyl-5-fluoro-2,4-pyrimidinediamine]
IC50 [1]: 0.0592 µM
IC50 [2]: 0.032 µM
IC50 [3]: 0.508 µM

CCS(=O)(=O)NCc1ccc(Nc2nc(Nc3ccc(S(N)(=O)=O)cc3)ncc2C)cc1 [Compound I-20, N2-(4-aminosulfonyl)phenyl-N4-(4-ethylsulfonylaminomethyl)phenyl-5-methyl-2,4-pyrimidinediamine]
IC50 [1]: 0.0736 µM
IC50 [2]: 0.0461 µM
IC50 [3]: 0.621 µM

Cc1cnc(Nc2cccc(S(N)(=O)=O)c2)nc1Nc1ccc(CNS(=O)(=O)c2cccnc2)cc1 [Compound I-100, N2-(3-aminosulfonyl)phenyl-5-methyl-N4-[4-(pyrid-3-yl)sulfonylaminomethyl]phenyl-2,4-pyrimidinediamine]
IC50 [1]: 0.102 µM
IC50 [2]: 0.153 µM
IC50 [3]: 0.489 µM

Cc1ccc(Nc2ncc(C)c(Nc3ccc4c(c3)CN(S(=O)(=O)C3CC3)C4)n2)cc1S(N)(=O)=O [II-7, N2-(3-Aminosulfonyl-4-methylphenyl)-N4-[(2-cyclopropylsulfonyl)-isoindolin-5-yl]-5-methyl-2,4-pyrimidinediamine]
IC50 [1]: 0.13 µM
IC50 [2]: 0.155 µM
IC50 [3]: 0.652 µM

Cc1cnc(Nc2cccc(S(N)(=O)=O)c2)nc1Nc1ccc2c(c1)CCN(S(=O)(=O)C1CC1)C2 [II-2, N2-(3-aminosulfonyl)phenyl-N4-[(N-cyclopropylsulfonyl)-1,2,3,4-tetrahydroisoquinolin-6-yl]-5-methyl-2,4-pyrimidinediamine]
IC50 [1]: 0.00775 µM
IC50 [2]: 0.0304 µM
IC50 [3]: 0.107 µM

CCCN(Cc1ccc(Nc2nc(Nc3cccc(S(N)(=O)=O)c3)ncc2F)cc1)S(=O)(=O)CC [Compound I-18, N2-(3-aminosulfonyl)phenyl-N4-[4-(N-ethylsulfonyl-N-propylamino)methyl]phenyl-5-fluoro-2,4-pyrimidinediamine]
IC50 [1]: 0.107 µM
IC50 [2]: 0.272 µM
IC50 [3]: 1.29 µM

CCS(=O)(=O)NCc1ccc(Nc2nc(Nc3ccc(C)c(S(N)(=O)=O)c3)ncc2C)cc1 [Compound I-22, N2-(3-aminosulfonyl-4-methyl)phenyl-N4-(4-ethylsulfonylaminomethyl)phenyl-5-methyl-2,4-pyrimidinediamine]
IC50 [1]: 0.0259 µM
IC50 [2]: 0.0822 µM
IC50 [3]: 0.207 µM

Cc1cnc(Nc2ccc(S(N)(=O)=O)cc2)nc1Nc1ccc2c(c1)CN(S(=O)(=O)C1CC1)C2 [II-9, N2-(4-Aminosulfonyl-phenyl)-N4-[(2-cyclopropylsulfonyl)-isoindolin-5-yl]-5-methyl-2,4-pyrimidinediamine]
IC50 [1]: 0.118 µM
IC50 [2]: 0.277 µM
IC50 [3]: 1.11 µM

CCS(=O)(=O)NCCc1ccc(Nc2nc(Nc3cccc(S(N)(=O)=O)c3)ncc2F)cc1 [Compound I-15, N2-(3-aminosulfonyl)phenyl-N4-[4-(2-ethylsulfonylamino)ethyl]phenyl-5-fluoro-2,4-pyrimidinediamine]
IC50 [1]: 0.0658 µM
IC50 [2]: 0.184 µM
IC50 [3]: 3.11 µM

CC(=O)Nc1nc(C)c(S(=O)(=O)NCc2ccc(Nc3nc(Nc4ccc(C)c(S(N)(=O)=O)c4)ncc3F)cc2)s1 [Compound I-44, N4-[4-(2-acetylamino-4-methylthiazol-5-yl)sulfonylaminomethyl]phenyl-N2-(3-aminosulfonyl-4-methyl)phenyl-5-fluoro-2,4-pyrimidinediamine]
IC50 [1]: 1.22 µM
IC50 [2]: 4.16 µM

NS(=O)(=O)c1cc(Nc2ncc(F)c(Nc3ccc(CNS(=O)(=O)C4CC4)cc3)n2)cc(S(N)(=O)=O)c1 [Compound I-82, N4-(4-cyclopropylsulfonylaminomethyl)phenyl-N2-(3,5-diaminosulfonyl)phenyl-5-fluoro-2,4-pyrimidinediamine]
IC50 [1]: 1.1 µM
IC50 [2]: 0.964 µM

CS(=O)(=O)CS(=O)(=O)NCc1ccc(Nc2nc(Nc3cccc(S(N)(=O)=O)c3)ncc2F)cc1 [Compound I-86, N2-(3-aminosulfonyl)phenyl-5-fluoro-N4-[4-(methylsulfonylmethylsulfonylamino)methyl]phenyl-2,4-pyrimidinediamine]
IC50 [1]: 0.505 µM
IC50 [2]: 0.224 µM

NS(=O)(=O)c1ccc(Nc2ncc(F)c(Nc3ccc(CNS(=O)(=O)c4cccnc4)cc3)n2)cc1 [Compound I-89, N2-(4-aminosulfonyl)phenyl-5-fluoro-N4-[4-(pyrid-3-yl)sulfonylaminomethyl]phenyl-2,4-pyrimidinediamine]
IC50 [1]: 0.448 µM
IC50 [2]: 1.5 µM
